Data from patent publication US12419339B2, “Aerosolized formulation” (priority 2018, dated 2025).
Where two headings read alike, the source gives them in different places.

Type: physicochemical
Conditions: prior to aerosolization

## CC1CCC(C(C)C)C(O)C1 (stereo not drawn) [1-menthol]
Formulation containing 1-menthol (83.1% water, 15.0% 2-hydroxy-propyl-β-cyclodextrin, 0.9% 1-menthol, 1% nicotine)
  liquid analysis, content: 0.8 % (w/w)
Formulation containing 1-menthol
  liquid analysis, content: 8 mg/g

## COc1cc(C=O)ccc1O [vanillin]
Formulation containing vanillin
  liquid analysis, content: 5 mg/g
